IC50 data for 25 compounds are collected here from patent US20240101563A1, “NOVEL COMPOUNDS” (AC Immune SA, priority 2022, published 2024).

In general, IC50 refers to the concentration needed to halve the response being measured.

The first assay relates to NLRP3 inflammasome pathway. In words: NLRP3 inflammasome pathway activation assay, MSU stimulation, IL-1β HTRF. Conditions: Homo sapiens, 3 h, Table 7; PMA-differentiated, LPS-primed cells; MSU 200 μg/mL for 3 h; IL-1β release; read-out: IC50 Human monocyte-like cells MSU. It is filed as cell-based. The method, then:
The following assays were used to determine the inhibitory activity of test compounds on the NLRP3 inflammasome pathway using common stimuli Nigericin (Invivogen) or monosodium urate crystals (MSU) (Invivogen).
Human monocyte-like cells were cultured in RPMI-1640 Glutamax medium supplemented with 10% heat inactivated FBS (Fetal Bovine Serum) and 50 U/mL penicillin-streptomycin (Life Technologies).
Human monocyte-like cells were seeded at 25000 per well in a 384-well plate and were differentiated overnight into macrophages with 10 ng/mL PMA (Phorbol Myristate Acetate). The following day, medium containing 10 ng/mL LPS (Lipopolysaccharide) was added. After 3 hours of LPS priming, concentrations of test compound in the range from […] were added 30 min prior to NLRP3 inflammasome pathway stimulation with Nigericin 3.75 μM or MSU 200 μg/mL for 3 h.
For IL-1p quantification, supernatants were analyzed using HTRF kit according to the manufacturer's instructions (Cisbio 62HIL1BPEH). Briefly, in a 384-well ProxiPlate™ microplate, 8 μl of sample was mixed, with 5 μl of Anti-IL1β Cryptate antibody (40×) and Anti-IL1β XL antibody (40×). Then, incubated overnight at RT. Reading was done using an EnVision Reader (PerkinElmer).
IC50 (concentration corresponding to 50% inhibition) were determined using GraphPad Prism 9.
As for `Cc1cc(Cl)cc(O)c1-c1nc2nc(NC3CCC(F)(F)C3)ccc2n1C` (racemic) [Example 11, 5-chloro-2-(5-((3,3-difluorocyclopentyl)amino)-1-methyl-1H-imidazo[4,5-b]pyridin-2-yl)-3-methylphenol], the half-maximal inhibitory concentration (IC50) fell in the range of 100 to 1000 nM.
Same read-out and setting: as for `Cc1cc(C(F)(F)F)cc(O)c1-c1nc2nc(OC3CCN(C)C3)ncc2n1C` (racemic) [Example 55, 3-methyl-2-(7-methyl-2-((1-methylpyrrolidin-3-yl)oxy)-7H-purin-8-yl)-5-(trifluoromethyl)phenol], the figure is 100 to 1000 nM; as for `Cc1cc(Cl)cc(O)c1-c1nc2nc(N3CCC4CCN(C)CC43)cnc2n1C` (racemic) [Example 76, 5-chloro-3-methyl-2-[1-methyl-5-(6-methyl-3,3a,4,5,7,7a-hexahydro-2H-pyrrolo[2,3-c]pyridin-1-yl)imidazo[4,5-b]pyrazin-2-yl]phenol], less than 100 nM.
Regarding `Cn1c(-c2ccc(C(F)(F)F)cc2O)nc2nc(N[C@@H]3CCC[C@@H](O)C3)ccc21` (relative stereo) [Example 22A, 2-(5-((3-hydroxycyclohexyl)amino)-1-methyl-1H-imidazo[4,5-b]pyridin-2-yl)-5-(trifluoromethyl)phenol], the half-inhibitory concentration (IC50) was 100 to 1000 nM.
The same measure, in the same setting: in the case of `Cc1cc(Cl)cc(O)c1-c1nc2nc(N3CC[C@@H]4CCN(C)C[C@@H]43)cnc2n1C` (relative stereo) [Example 77A, 5-chloro-3-methyl-2-[1-methyl-5-[rel-(3aS,7aR)-6-methyl-3,3a,4,5,7,7a-hexahydro-2H-pyrrolo[2,3-c]pyridin-1-yl]imidazo[4,5-b]pyrazin-2-yl]phenol] it was less than 100 nM; in that of `CCn1c(-c2c(C)cc(C(F)(F)F)cc2O)nc2nc(NC3CCN(C)C3)ccc21` (single isomer, unassigned) [Example 8, 2-(1-ethyl-5-((1-methylpyrrolidin-3-yl)amino)-1H-imidazo[4,5-b]pyridin-2-yl)-3-methyl-5-(trifluoromethyl)phenol], less than 100 nM.
Same read-out and setting: as for `CC(C)n1c(-c2ccc(C(F)(F)F)cc2O)nc2nc(NC3CCN(C)C3)ccc21` (single isomer, unassigned) [Example 10A, 2-(1-isopropyl-5-((1-methylpyrrolidin-3-yl)amino)-1H-imidazo[4,5-b]pyridin-2-yl)-5-(trifluoromethyl)phenol], the figure is 100 to 1000 nM.
Still for that read-out and setting: in the case of `Cc1cc(C(F)(F)F)cc(O)c1-c1nc2nc(NC3CCN(C)C3)ccc2n1C` (single isomer, unassigned) [Example 18A, 3-methyl-2-(1-methyl-5-((1-methylpyrrolidin-3-yl)amino)-1H-imidazo[4,5-b]pyridin-2-yl)-5-(trifluoromethyl)phenol] it was less than 100 nM.
For `CN1CC[C@@H](Nc2ccc3c(n2)nc(-c2ccc(C(F)(F)F)cc2O)n3C)C1` (single isomer, unassigned) [Example 19, 2-(1-methyl-5-((1-methylpyrrolidin-3-yl)amino)-1H-imidazo[4,5-b]pyridin-2-yl)-5-(trifluoromethyl)phenol], the IC50 is less than 100 nM.
Same read-out and setting: as for `Cc1cc(C(F)(F)F)cc(O)c1-c1nc2nc(N[C@@H]3CCC[C@@H](O)C3)ccc2n1C` (single isomer, unassigned) [Example 21, 2-(5-((3-hydroxycyclohexyl)amino)-1-methyl-1H-imidazo[4,5-b]pyridin-2-yl)-3-methyl-5-(trifluoromethyl)phenol], the figure is 100 to 1000 nM; as for `Cn1c(-c2ccc(C(F)(F)F)cc2O)nc2nc(O[C@H]3CC[C@H](O)C3)ccc21` (single isomer, unassigned) [Example 37A, trans-2-(5-((3-hydroxycyclopentyl)oxy)-1-methyl-1H-imidazo[4,5-b]pyridin-2-yl)-5-(trifluoromethyl)phenol], 100 to 1000 nM.
Take `Cc1cc(Cl)cc(O)c1-c1nc2nc(N3CCC(O)C3)cnc2n1C` (single isomer, unassigned) [Example 85A]: the IC50 was less than 100 nM.
On the same count and under the same terms, in the case of `Cc1cc(Cl)cc(O)c1-c1nc2nc(N3CCC(C)(O)C3)cnc2n1C` (single isomer, unassigned) [Example 86A] it was less than 100 nM; in that of `Cn1c(-c2ccc(C(F)(F)F)cc2O)nc2nc(NCCO)ccc21` [Example 1, 2-(5-((2-hydroxyethyl)amino)-1-methyl-1H-imidazo[4,5-b]pyridin-2-yl)-5-(trifluoromethyl)phenol], 100 to 1000 nM; in that of `CN1CCC[C@@H](Nc2ccc3c(n2)nc(-c2ccc(C(F)(F)F)cc2O)n3C)C1` [Example 2], 100 to 1000 nM.
On the same count and under the same terms, in the case of `CNc1ccc2c(n1)nc(-c1c(C)cc(C(F)(F)F)cc1O)n2C` [Example 3, 3-methyl-2-(1-methyl-5-(methylamino)-1H-imidazo[4,5-b]pyridin-2-yl)-5-(trifluoromethyl) phenol] it was 100 to 1000 nM.
The same measure, in the same setting: in the case of `CNc1ccc2c(n1)nc(-c1ccc(C(F)(F)F)cc1O)n2C` [Example 4, 2-(1-methyl-5-(methylamino)-1H-imidazo[4,5-b]pyridin-2-yl)-5-(trifluoromethyl)phenol] it was 100 to 1000 nM; in that of `Cn1c(-c2ccc(C(F)(F)F)cc2O)nc2nc(NCC(C)(C)O)ccc21` [Example 5, 2-(5-((2-hydroxy-2-methylpropyl)amino)-1-methyl-1H-imidazo[4,5-b]pyridin-2-yl)-5-(trifluoromethyl)phenol], 100 to 1000 nM; in that of `Cc1cc(C(F)(F)F)cc(O)c1-c1nc2nc(NCC(C)(C)O)ccc2n1C` [Example 6, 2-(5-((2-hydroxy-2-methylpropyl)amino)-1-methyl-1H-imidazo[4,5-b]pyridin-2-yl)-3-methyl-5-(trifluoromethyl)phenol], greater than 1000 nM.
Turning to `Cn1c(-c2ccc(C(F)(F)F)cc2O)nc2nc(NC3COC3)ccc21` [Example 7, 2-(1-methyl-5-(oxetan-3-ylamino)-1H-imidazo[4,5-b]pyridin-2-yl)-5-(trifluoromethyl)phenol], the IC50 was 100 to 1000 nM.

Still in this assay, the particulars now being: Homo sapiens, 3 h, Table 8 (formula II′/II vs formula III); MSU 200 μg/mL for 3 h; IL-1β release; read-out: IC50 Human monocyte-like cells MSU.
Regarding `Cn1c(-c2ccc(C(F)(F)F)cc2O)nc2nc(NCCO)ccc21` [Example 1, 2-(5-((2-hydroxyethyl)amino)-1-methyl-1H-imidazo[4,5-b]pyridin-2-yl)-5-(trifluoromethyl)phenol], the IC50 is 100 to 500 nM.
On the same count and under the same terms, in the case of `CN1CCC[C@@H](Nc2ccc3c(n2)nc(-c2ccc(C(F)(F)F)cc2O)n3C)C1` [Example 2] it was 100 to 500 nM.

The assay is the same for the next values; noted with them: Table 7; PMA-differentiated, LPS-primed cells; MSU 200 μg/mL for 3 h; IL-1β release; read-out: IC50 Human monocyte-like cells MSU.
With `Cc1cc(Cl)cc(O)c1-c1nc2nc(N3CC[C@@H]4CCN(C)C[C@@H]43)cnc2n1C` (relative stereo) [Example 77B, 5-chloro-3-methyl-2-[1-methyl-5-[rel-(3aS,7aR)-6-methyl-3,3a,4,5,7,7a-hexahydro-2H-pyrrolo[2,3-c]pyridin-1-yl]imidazo[4,5-b]pyrazin-2-yl]phenol], the concentration for half-maximal inhibition (IC50) was less than 100 nM.
On to `Cc1cc(C(F)(F)F)cc(O)c1-c1nc2nc(NC3CCN(C)C3)ccc2n1C` (single isomer, unassigned) [Example 18B, 3-methyl-2-(1-methyl-5-((1-methylpyrrolidin-3-yl)amino)-1H-imidazo[4,5-b]pyridin-2-yl)-5-(trifluoromethyl)phenol], for which the concentration for half-maximal inhibition (IC50) lay in the range of 100 to 1000 nM.
For the compound `Cn1c(-c2ccc(C(F)(F)F)cc2O)nc2nc(O[C@H]3CC[C@H](O)C3)ccc21` (single isomer, unassigned) [Example 37B, trans-2-(5-((3-hydroxycyclopentyl)oxy)-1-methyl-1H-imidazo[4,5-b]pyridin-2-yl)-5-(trifluoromethyl)phenol], the IC50 was 100 to 1000 nM.
On the same count and under the same terms, in the case of `Cc1cc(Cl)cc(O)c1-c1nc2nc(N3CCC(O)C3)cnc2n1C` (single isomer, unassigned) [Example 85B] it was less than 100 nM; in that of `Cc1cc(Cl)cc(O)c1-c1nc2nc(N3CCC(C)(O)C3)cnc2n1C` (single isomer, unassigned) [Example 86B], less than 100 nM.
